In ChEMBL document CHEMBL4261608, “Design, synthesis and anti-mycobacterial activity evaluation of benzofuran-isatin hybrids” (Eur J Med Chem, 2018):

System: Mycobacterium tuberculosis
Assay: Antimycobacterial activity against ethambutol/isoniazid/rifampicin-resistant Mycobacterium tuberculosis incubated for 7 days by rapid direct susceptibility test
Format: functional
Details: 168 h

In the case of NNC(=O)c1ccncc1 [ISONIAZID], the MIC is reported as greater than 128 µg/mL.
